Laboratory results: PubChem BioAssay AID1963868 (Molecular Pharmacology Branch, DTP, NCI, 2024)

Tested on: KRAS PDC tumor spheroids (HUVEC+MSC), viability
Test: Anticancer human tumor 254851-301-R-J1-PDC patient-derived colon carcinoma cell line growth inhibition [KRAS2]
Conditions: for IC50: curve of first compound; for viability, T/C: stronger effect = lower value
In short: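 Combination screen of spheroid viability in tumor-cell co-cultures with endothelial (HUVEC) and mesenchymal stem cell stroma. Each agent was tested in half-log dilutions, topping at clinical Cmax or at 10 microM without a known Cmax.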

[1] = second compound 0.1 µM, first compound 0.0316 µM
[2] = second compound 0.1 µM, first compound 0.1 µM
[3] = second compound 0.1 µM, first compound 0.316 µM
[4] = second compound 0.1 µM, first compound 1 µM
[5] = second compound 0.1 µM, first compound 3.16 µM
[6] = second compound 0.1 µM, first compound 10 µM
[7] = second compound 0.316 µM, first compound 0.0316 µM
[8] = second compound 0.316 µM, first compound 0.1 µM
[9] = second compound 0.316 µM, first compound 0.316 µM
[10] = second compound 0.316 µM, first compound 1 µM
[11] = second compound 0.316 µM, first compound 3.16 µM
[12] = second compound 0.316 µM, first compound 10 µM
[13] = second compound 1 µM, first compound 0.0316 µM
[14] = second compound 1 µM, first compound 0.1 µM
[15] = second compound 1 µM, first compound 0.316 µM
[16] = second compound 1 µM, first compound 1 µM
[17] = second compound 1 µM, first compound 3.16 µM
[18] = second compound 1 µM, first compound 10 µM
[19] = second compound 3.16 µM, first compound 0.0316 µM
[20] = second compound 3.16 µM, first compound 0.1 µM
[21] = second compound 3.16 µM, first compound 0.316 µM
[22] = second compound 3.16 µM, first compound 1 µM
[23] = second compound 3.16 µM, first compound 3.16 µM
[24] = second compound 3.16 µM, first compound 10 µM
[25] = second compound 10 µM, first compound 0.0316 µM
[26] = second compound 10 µM, first compound 0.1 µM
[27] = second compound 10 µM, first compound 0.316 µM
[28] = second compound 10 µM, first compound 1 µM
[29] = second compound 10 µM, first compound 3.16 µM
[30] = second compound 10 µM, first compound 10 µM
[31] = second compound 0.1 µM, first compound 0.000316 µM
[32] = second compound 0.1 µM, first compound 0.001 µM
[33] = second compound 0.1 µM, first compound 0.00316 µM
[34] = second compound 0.1 µM, first compound 0.01 µM
[35] = second compound 0.316 µM, first compound 0.000316 µM
[36] = second compound 0.316 µM, first compound 0.001 µM
[37] = second compound 0.316 µM, first compound 0.00316 µM
[38] = second compound 0.316 µM, first compound 0.01 µM
[39] = second compound 1 µM, first compound 0.000316 µM
[40] = second compound 1 µM, first compound 0.001 µM
[41] = second compound 1 µM, first compound 0.00316 µM
[42] = second compound 1 µM, first compound 0.01 µM
[43] = second compound 3.16 µM, first compound 0.000316 µM
[44] = second compound 3.16 µM, first compound 0.001 µM
[45] = second compound 3.16 µM, first compound 0.00316 µM
[46] = second compound 3.16 µM, first compound 0.01 µM
[47] = second compound 10 µM, first compound 0.000316 µM
[48] = second compound 10 µM, first compound 0.001 µM
[49] = second compound 10 µM, first compound 0.00316 µM
[50] = second compound 10 µM, first compound 0.01 µM
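Note: spheroids exposed to compounds for seven days before readout.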
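Throughout, for viability, T/C: 100% = DMSO vehicle control luminescence of the spheroids.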

Structure (SMILES) | IC50 (second compound 0.1 µM) | IC50 (second compound 0.316 µM) | IC50 (second compound 1 µM) | IC50 (second compound 3.16 µM) | IC50 (second compound 10 µM) | viability, T/C [1] | viability, T/C [2] | viability, T/C [3] | viability, T/C [4] | viability, T/C [5] | viability, T/C [6] | viability, T/C [7] | viability, T/C [8] | viability, T/C [9] | viability, T/C [13] | viability, T/C [14] | viability, T/C [19] | viability, T/C [20] | viability, T/C [25] | viability, T/C [26] | other results
CC(C)NCC(C(=O)N1CCN(c2ncnc3c2C(C)CC3O)CC1)c1ccc(Cl)cc1 (stereo not given) + COc1cc2nc(C)nc(NC(C)c3cc(N)cc(C(F)(F)F)c3)c2cc1OC1CCOC1 | > 10000 nM | > 10000 nM | 2020 nM | 3160 nM | 514 nM | 107% | 99.7% | 99.7% | 91.5% | 39.8% | 75.7% | 101% | 98.2% | 84.3% | 85.2% | 100% | 85.6% | 83.2% | 75.3% | 82% | viability, T/C [10]: 84.1%; viability, T/C [11]: 31.1%; viability, T/C [12]: 71.4%; viability, T/C [15]: 82.2%; viability, T/C [16]: 78.5%; viability, T/C [17]: 32.2%; viability, T/C [18]: 13.7%; viability, T/C [21]: 88.4%; viability, T/C [22]: 44.5%; viability, T/C [23]: 32.5%; viability, T/C [24]: 75.1%; viability, T/C [27]: 56.1%; viability, T/C [28]: 41.2%; viability, T/C [29]: 15.5%; viability, T/C [30]: 29.4%
CC(C)n1nc(-c2ccc3oc(N)nc3c2)c2c(N)ncnc21 + COc1cc2nc(C)nc(NC(C)c3cc(N)cc(C(F)(F)F)c3)c2cc1OC1CCOC1 | 20.7 nM | 21.1 nM | 20.7 nM | 20.1 nM | 11.6 nM | 34.7% | 21.4% |  |  |  |  | 38.7% | 24% |  | 37% | 23.6% | 32.6% | 22.5% | 34.2% | 21% | viability, T/C [31]: 99%; viability, T/C [32]: 118%; viability, T/C [33]: 91.2%; viability, T/C [34]: 76.2%; viability, T/C [35]: 102%; viability, T/C [36]: 100%; viability, T/C [37]: 81.7%; viability, T/C [38]: 70.2%; viability, T/C [39]: 88.7%; viability, T/C [40]: 98.6%; viability, T/C [41]: 87.2%; viability, T/C [42]: 72.2%; viability, T/C [43]: 85.3%; viability, T/C [44]: 98.2%; viability, T/C [45]: 88.2%; viability, T/C [46]: 76.7%; viability, T/C [47]: 86.4%; viability, T/C [48]: 97%; viability, T/C [49]: 73.7%; viability, T/C [50]: 51.9%
CC1(C)CCC(CN2CCN(c3ccc(C(=O)NS(=O)(=O)c4ccc(NCC5CCOCC5)c([N+](=O)[O-])c4)c(Oc4cnc5[nH]ccc5c4)c3)CC2)=C(c2ccc(Cl)cc2)C1 + COc1cc2nc(C)nc(NC(C)c3cc(N)cc(C(F)(F)F)c3)c2cc1OC1CCOC1 | > 10000 nM | > 10000 nM | > 10000 nM | 3720 nM | 1730 nM | 103% | 95% | 95.7% | 97.6% | 91.2% | 83.2% | 86.5% | 83.9% | 92% | 88.7% | 88.1% | 82.2% | 89.3% | 86.6% | 83.8% | viability, T/C [10]: 79.3%; viability, T/C [11]: 88.6%; viability, T/C [12]: 66.4%; viability, T/C [15]: 79.8%; viability, T/C [16]: 78.1%; viability, T/C [17]: 74.9%; viability, T/C [18]: 49.2%; viability, T/C [21]: 81.2%; viability, T/C [22]: 76.4%; viability, T/C [23]: 53.3%; viability, T/C [24]: 29.6%; viability, T/C [27]: 72.5%; viability, T/C [28]: 73.9%; viability, T/C [29]: 24.2%; viability, T/C [30]: 6.7%
COc1cc(Nc2ncc3c(n2)-c2ccc(Cl)cc2C(c2c(F)cccc2OC)=NC3)ccc1C(=O)O + COc1cc2nc(C)nc(NC(C)c3cc(N)cc(C(F)(F)F)c3)c2cc1OC1CCOC1 | 88.4 nM | 85.9 nM | 80.7 nM | 77.1 nM | 48.3 nM | 77.7% | 42% | 31.5% | 25.1% | 14% | 9.19% | 83.9% | 39.8% | 30.7% | 77.4% | 39.1% | 74.5% | 38.8% | 58.6% | 34.1% | viability, T/C [10]: 24.1%; viability, T/C [11]: 17%; viability, T/C [12]: 8.65%; viability, T/C [15]: 30.1%; viability, T/C [16]: 24.6%; viability, T/C [17]: 18.5%; viability, T/C [18]: 8.42%; viability, T/C [21]: 30.2%; viability, T/C [22]: 25.8%; viability, T/C [23]: 20.3%; viability, T/C [24]: 10.9%; viability, T/C [27]: 28.9%; viability, T/C [28]: 25%; viability, T/C [29]: 22.4%; viability, T/C [30]: 16.4%
COc1cc2nccc(Oc3ccc(NC(=O)C4(C(=O)Nc5ccc(F)cc5)CC4)cc3)c2cc1OC + COc1cc2nc(C)nc(NC(C)c3cc(N)cc(C(F)(F)F)c3)c2cc1OC1CCOC1 | > 10000 nM | > 10000 nM | > 10000 nM | > 10000 nM | 2670 nM | 101% | 109% | 114% | 99% | 58% | 96.4% | 85.9% | 108% | 122% | 103% | 106% | 103% | 104% | 64.5% | 103% | viability, T/C [10]: 90%; viability, T/C [11]: 66.2%; viability, T/C [12]: 98.8%; viability, T/C [15]: 104%; viability, T/C [16]: 90%; viability, T/C [17]: 42.1%; viability, T/C [18]: 84.4%; viability, T/C [21]: 87.7%; viability, T/C [22]: 80.6%; viability, T/C [23]: 20.9%; viability, T/C [24]: 92.7%; viability, T/C [27]: 90%; viability, T/C [28]: 67.2%; viability, T/C [29]: 4%; viability, T/C [30]: 90.1%
Cn1ncnc1[C@H]1c2n[nH]c(=O)c3cc(F)cc(c23)N[C@@H]1c1ccc(F)cc1 + COc1cc2nc(C)nc(NC(C)c3cc(N)cc(C(F)(F)F)c3)c2cc1OC1CCOC1 | > 100 nM | > 100 nM | > 100 nM | > 100 nM | > 100 nM | 99.6% | 101% |  |  |  |  | 84.8% | 89.5% |  | 85.9% | 81.3% | 87.2% | 80.9% | 69.2% | 74.7% | viability, T/C [31]: 111%; viability, T/C [32]: 95.6%; viability, T/C [33]: 104%; viability, T/C [34]: 100%; viability, T/C [35]: 95.9%; viability, T/C [36]: 100%; viability, T/C [37]: 93.5%; viability, T/C [38]: 80.9%; viability, T/C [39]: 86.9%; viability, T/C [40]: 81.6%; viability, T/C [41]: 83.1%; viability, T/C [42]: 86.4%; viability, T/C [43]: 86.5%; viability, T/C [44]: 83.8%; viability, T/C [45]: 95.9%; viability, T/C [46]: 86%; viability, T/C [47]: 77.9%; viability, T/C [48]: 83%; viability, T/C [49]: 80.8%; viability, T/C [50]: 78.1%
